Test results published in patent publication US20230141034A1, “ADAMANTANE-1-CARBONYL THIOUREA, AS P2X RECEPTOR ANTAGONIST” (COMSATS UNIVERSITY ISLAMABAD, priority 2021, published 2023).
Read-outs that look alike come from different tables or passages of the source.

Columns and labels:
[1] = MTT cytotoxicity assay, human 1321N1 astrocytoma cell line; type: cell-based; settings: human, 1321N1 astrocytoma cells, final concentration of 50 μM
Method: (§1) Cellular safety profiling of adamantane thioureas were done through MTT assay. All compounds were analyzed for toxicity at final concentration of 50 μM. […] Toxicity was determined against two cancer cell lines including human 1321N1 Astrocytoma cell line, HeLa cell line and a normal HEK-293 cell line.
(§2) c. Cell Viability Assay (MTT Assay)
(§3) After 24 h of incubation at 37° C. in CO2 incubator, culture media will be replaced with serum-free media along with test compounds and re-incubate. After 24 h, media will be removed and add 100 μL of MTT reagent (0.5-5 mg/mL) and will be incubated for a further 4 h, at 37° C. Absorbance will be measured at 570 and 630 nm to calculate cell viability.

[2] = MTT cytotoxicity assay, HEK-293 cell line; type: cell-based; settings: human, HEK-293 cells, final concentration of 50 μM
Method: as §1, §2, §3

[3] = MTT cytotoxicity assay, HeLa cell line; type: cell-based; settings: human, HeLa cells, final concentration of 50 μM
Method: as §1, §2, §3

h-P2X2 = molecular target: T1, h-P2X2 (Homo sapiens, UniProt Q9UBL9); assay: Ca2+ flux assay h-P2X2; settings: for inhibition at 50 µM: read-out: h-P2X2 % Inhibition; for IC50: read-out: h-P2X2 IC50 ± SEM, Ca2+ flux, n = 3
T1 sequence (Q9UBL9 1-471): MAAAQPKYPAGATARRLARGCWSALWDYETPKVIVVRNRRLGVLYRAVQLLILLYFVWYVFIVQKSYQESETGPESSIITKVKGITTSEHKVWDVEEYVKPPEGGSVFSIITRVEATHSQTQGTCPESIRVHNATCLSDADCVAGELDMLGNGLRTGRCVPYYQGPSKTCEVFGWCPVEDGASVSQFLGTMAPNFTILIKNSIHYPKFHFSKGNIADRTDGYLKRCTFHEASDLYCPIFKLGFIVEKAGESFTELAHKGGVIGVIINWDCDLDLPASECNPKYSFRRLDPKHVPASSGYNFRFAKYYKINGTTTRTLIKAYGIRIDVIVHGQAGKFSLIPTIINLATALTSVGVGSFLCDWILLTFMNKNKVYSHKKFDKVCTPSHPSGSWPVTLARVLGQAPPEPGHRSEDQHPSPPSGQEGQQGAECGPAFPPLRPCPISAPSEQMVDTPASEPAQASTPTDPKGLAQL
Method: (§4) Compounds were initially analyzed at a final concentration of about 50 μM and percentage of inhibition was calculated.
(§5) Calcium Mobilization Assay to Measure P2X Receptors Response Cell Culture: P2X receptors functions can be analyzed from ATP-induced increase in cytosolic Ca^2+ concentration. Two Ca^2+ chelating dyes, Fura-2 AM and Fluo-4 AM can be used to determine the intracellular Ca^2+ concentration through a fluorescent imaging micro-titer plate reader (BMG Labtech: FLUOstar Galaxy®). Non-transfected human 1321N1 astrocytoma cells, as well as P2X receptors transfected human 1321N1 astrocytoma cells will be cultured in T-75 cm^2 cell culture flask having appropriate cell culture growth media; Dulbecco's Modified Eagle's medium (DMEM) supplemented with 10% fetal bovine serum (FBS), 75 μg/mL of Hygromycin B or human P2X receptors transfected cell lines and 1% pen-strep (antibiotics). Cells will be incubated at 37° C. in 5% CO2 incubator until 80 to 90% cell confluency will be achieved. Cells will be maintained in an exponential growth phase throughout the experiment and closely monitored for contamination.
Measurement of Ca^2+ Flux
(§6) When 1321N1 cells will reach 80 to 90% of confluency, cells will be harvested from T-75 cm^2 flask by trypsinization. After washing the cells with phosphate buffer saline (PBS), cells will be seeded at a density of 20,000 cells/well in black, clear bottom, poly-D-lysine coated 96 well plate. After 16 to 24 h, cell culture media will be removed and add Hank's balanced salt solution (HBSS) containing 3 μM Ca^2+ chelating dyes Fura-2 AM or Fluo-4 AM. After 1 h of incubation at 23° C., the loading dye solution will be removed, and added seven to eight dilutions of test compounds in triplicate format. ATP (at a concentration value of EC80) or buffer will be added and measured the excitation and emission at 340/520 nm and 380/520 nm through FLUOStar Galaxy®. Assay volume for the experiment will be 200 μL. IC50 and EC50 values will be calculated by PRISM 5.0 (GrapgPad, San Diego, Calif., USA) through non-linear regression analysis.

h-P2X4 = molecular target: T2, h-P2X4 (Homo sapiens, UniProt Q99571); assay: Ca2+ flux assay h-P2X4; settings: for inhibition at 50 µM: read-out: h-P2X4 % Inhibition
T2 sequence (Q99571 1-388): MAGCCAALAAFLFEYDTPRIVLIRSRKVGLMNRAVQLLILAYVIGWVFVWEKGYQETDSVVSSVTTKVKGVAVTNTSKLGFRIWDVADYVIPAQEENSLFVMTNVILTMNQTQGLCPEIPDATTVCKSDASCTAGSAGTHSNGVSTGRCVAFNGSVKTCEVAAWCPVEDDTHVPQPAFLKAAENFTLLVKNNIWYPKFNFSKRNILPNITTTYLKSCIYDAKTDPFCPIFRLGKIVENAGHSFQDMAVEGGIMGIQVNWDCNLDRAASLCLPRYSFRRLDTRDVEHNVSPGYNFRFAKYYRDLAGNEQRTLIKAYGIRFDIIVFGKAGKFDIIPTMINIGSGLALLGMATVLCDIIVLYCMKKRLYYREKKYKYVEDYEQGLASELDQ
Method: as §4, §5
Measurement of Ca^2+ Flux
as §6

h-P2X5 = h-P2X5 (Homo sapiens, UniProt Q93086); assay: Ca2+ flux assay h-P2X5; settings: for inhibition at 50 µM: read-out: h-P2X5 % Inhibition
Sequence of h-P2X5 (Q93086 whole entry): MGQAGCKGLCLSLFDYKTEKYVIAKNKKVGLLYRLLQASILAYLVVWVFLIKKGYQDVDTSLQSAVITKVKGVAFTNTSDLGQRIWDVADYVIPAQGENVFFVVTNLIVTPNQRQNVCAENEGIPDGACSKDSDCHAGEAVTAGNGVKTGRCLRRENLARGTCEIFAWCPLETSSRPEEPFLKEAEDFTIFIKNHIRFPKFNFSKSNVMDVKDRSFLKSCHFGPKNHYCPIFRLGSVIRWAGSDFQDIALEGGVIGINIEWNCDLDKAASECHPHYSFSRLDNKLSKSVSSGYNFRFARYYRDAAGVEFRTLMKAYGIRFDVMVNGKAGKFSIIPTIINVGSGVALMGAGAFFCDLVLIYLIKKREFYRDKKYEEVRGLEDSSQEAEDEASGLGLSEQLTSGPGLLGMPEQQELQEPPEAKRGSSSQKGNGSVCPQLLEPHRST
Method: as §4, §5
Measurement of Ca^2+ Flux
as §6

h-P2X7 = molecular target: T3, h-P2X7 (Homo sapiens, UniProt Q99572); assay: Ca2+ flux assay h-P2X7; settings: for inhibition at 50 µM: read-out: h-P2X7 % Inhibition
T3 sequence (Q99572 1-595): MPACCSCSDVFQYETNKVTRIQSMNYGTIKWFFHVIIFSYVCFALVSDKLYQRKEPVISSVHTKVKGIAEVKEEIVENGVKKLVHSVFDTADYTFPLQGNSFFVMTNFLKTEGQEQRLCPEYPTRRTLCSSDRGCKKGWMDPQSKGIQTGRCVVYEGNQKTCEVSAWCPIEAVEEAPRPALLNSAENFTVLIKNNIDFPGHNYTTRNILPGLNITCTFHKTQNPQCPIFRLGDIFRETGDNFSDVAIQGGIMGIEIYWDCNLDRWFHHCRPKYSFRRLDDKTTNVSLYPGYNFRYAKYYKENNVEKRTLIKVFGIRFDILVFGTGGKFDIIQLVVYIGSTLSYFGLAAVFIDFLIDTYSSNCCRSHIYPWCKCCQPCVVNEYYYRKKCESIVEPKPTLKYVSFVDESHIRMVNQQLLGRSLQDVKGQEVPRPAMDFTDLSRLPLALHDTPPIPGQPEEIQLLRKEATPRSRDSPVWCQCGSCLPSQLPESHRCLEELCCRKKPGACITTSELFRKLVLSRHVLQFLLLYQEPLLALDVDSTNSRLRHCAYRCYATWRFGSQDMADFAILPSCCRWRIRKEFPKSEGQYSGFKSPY
Method: as §4, §5
Measurement of Ca^2+ Flux
as §6

[4] = read-out: h-P2X7 IC50 ± SEM, Ca2+ flux, n = 3
[5] = read-out: h-P2X4 IC50 ± SEM, Ca2+ flux, n = 3

Compound | cytotoxicity at 24 h, 50 µM [1] [%] | cytotoxicity at 24 h, 50 µM [2] [%] | cytotoxicity at 24 h, 50 µM [3] [%] | inhibition at 50 µM (h-P2X2) [%] | inhibition at 50 µM (h-P2X4) [%] | inhibition at 50 µM (h-P2X5) [%] | inhibition at 50 µM (h-P2X7) [%] | IC50 (h-P2X7; [4]) [µM] | IC50 (h-P2X4; [5]) [µM] | IC50 (h-P2X2) [µM] | IC50 (h-P2X5) [µM] | IC50 (h-P2X4) [µM] | IC50 (h-P2X7) [µM] | IC50 (h-P2X5; read-out: h-P2X5 IC50 ± SEM, Ca2+ flux, n = 3) [µM]
O=C(NC(=S)Nc1cccc(O)c1)C12CC3CC(CC(C3)C1)C2 [Ib, N-((3-hydroxyphenyl)carbamothioyl)adamantane-1-carboxamide] | 5.67 | 6.95 | 11 | 32.6 | 36.7 | 43.6 | 19.1 | – | – | – | – | – | – | –
O=C(NC(=S)Nc1ccc(O)cc1)C12CC3CC(CC(C3)C1)C2 [Ic, N-((4-hydroxyphenyl)carbamothioyl)adamantane-1-carboxamide] | 19 | 3.02 | 8.66 | 37.9 | 32.4 | 33.2 | – | 1.4 ± 0.18 | – | – | – | – | – | –
O=C(NC(=S)Nc1ccc(Br)cc1)C12CC3CC(CC(C3)C1)C2 [Il, N-((4-bromophenyl)carbamothioyl)adamantane-1-carboxamide] | 15.4 | 18.7 | 7.19 | 36 | 46.8 | 47.7 | – | 8.8 ± 1.12 | – | – | – | – | – | –
O=C(NC(=S)Nc1ccccc1O)C12CC3CC(CC(C3)C1)C2 [Ia, N-((2-hydroxyphenyl)carbamothioyl)adamantane-1-carboxamide] | 10.3 | 26.6 | 13.1 | 32.6 | – | 40.6 | – | 1.47 ± 0.09 | 1.08 ± 0.02 | – | – | – | – | –
O=C(NC(=S)Nc1cc(Cl)c(O)c(Cl)c1)C12CC3CC(CC(C3)C1)C2 [Id, N-((3,5-dichloro-4-hydroxyphenyl)carbamothioyl)adamantane-1-carboxamide] | 6.18 | 1.06 | 5.4 | – | – | – | – | – | 1.28 ± 0.11 | 1.06 ± 0.05 | 3.4 ± 0.4 | – | – | –
NS(=O)(=O)c1cccc(NC(=S)NC(=O)C23CC4CC(CC(C4)C2)C3)c1 [Ig, N-((3-sulfamoylphenyl)carbamothioyl)adamantane-1-carboxamide] | 12.9 | 3.77 | 12.5 | 18.1 | – | 42.5 | – | – | – | – | – | 4.19 ± 0.23 | 0.829 ± 0.12 | –
O=C(NC(=S)Nc1cc(Br)c(O)c(C(F)(F)F)c1)C12CC3CC(CC(C3)C1)C2 [Ie, N-((3-bromo-4-hydroxy-5-(trifluoromethyl)phenyl)carbamothioyl)adamantane-1-carboxamide] | 5.37 | 6.85 | 11.9 | 30.5 | – | 20.4 | – | – | – | – | – | 4.53 ± 0.39 | 4.02 ± 0.64 | –
Cc1cc(Br)ccc1NC(=S)NC(=O)C12CC3CC(CC(C3)C1)C2 [In, N-((4-bromo-2-methylphenyl)carbamothioyl)adamantane-1-carboxamide] | 14.3 | 14 | 4.1 | 22.7 | 34.9 | 27.1 | 18.8 | – | – | – | – | – | – | –
Cc1ccc(C(=O)Nc2ccc(S(=O)(=O)O)c3cc(S(=O)(=O)O)cc(S(=O)(=O)O)c23)cc1NC(=O)c1cccc(NC(=O)Nc2cccc(C(=O)Nc3cc(C(=O)Nc4ccc(S(=O)(=O)O)c5cc(S(=O)(=O)O)cc(S(=O)(=O)O)c45)ccc3C)c2)c1 [Suramin, reference compound] | 18.6 | 48 | 21.7 | – | – | – | – | – | 5.64 ± 0.04 | 13.45 ± 0.11 | – | – | – | 16.1 ± 0.5
Cc1ccc(NC(=S)NC(=O)C23CC4CC(CC(C4)C2)C3)c(Br)c1 [Im, N-((2-bromo-4-methylphenyl)carbamothioyl)adamantane-1-carboxamide] | 7.29 | 18.9 | 15.4 | – | – | – | – | 3.71 ± 0.78 | 1.56 ± 0.21 | 4.85 ± 0.32 | 6.04 ± 1.2 | – | – | –
